This note sets out measurements from publication PMC12699035, “Exploring market-approved azoles as potential breast cancer therapeutics targeting the VEGFR-2 biotarget” (Scientific Reports, 2025).

The test system of one experiment is MCF-10A cells. As to the kind of experiment: Cytotoxicity against MCF-10A cells, MTT assay (five doses). It counts as cell-based. As to conditions: Homo sapiens, MCF-10A normal cells, five dose concentrations, n = 3, read-out: MCF-10A IC50 ± SD.
The next experiment concerns the target T1, VEGFR-2 (Homo sapiens, UniProt P35968).
T1 construct: purchased BPS Bioscience 40325
The experiment can be described thus: VEGFR-2 kinase inhibition, luminescent VEGFR2 (KDR) kinase assay kit (BPS Bioscience # 40325). Format: biochemical. As to conditions: for VEGFR-2 enzyme inhibition LogIC50 (Fig. 3): unit not given. On the procedure: Functionally, this pathway operates in autocrine and intracrine modes to promote cell proliferation, survival, and resistance to apoptosis through downstream effectors such as PI3K/AKT and p38 MAPK.
SIT, FLU and TNZ were tested using the five dose sigmoidal curves to determine the IC50 values. […] At the end of these experiment, anti-tumor potentiality was recorded using tumor weight (mg), tumor volume (mm^3), and the tumor inhibition ratio (TIR%). Hematological parameters of Hemoglobin (Hb, g/dL), RBC’s count (10^6/μL), and WBC’s count (10^3/μL) were investigated, along with histopathological and immunohistochemical staining of the VEGR2 protein.
Compounds Itraconazole. […] [12].

The test system of another experiment is MCF-7 cells. The experiment can be described thus: Cytotoxicity against MCF-7 cells, MTT assay (single dose and five doses). As to conditions: for Average OD / OD1 / OD2 / OD3: MCF-7, single dose 100 μg/mL, MTT optical density; for Average OD: average of triplicates; for OD1: replicate 1; for OD2: replicate 2; for OD3: replicate 3.
Where [1] appears, read: Homo sapiens, MCF7, read-out: Average viability%.
The mark [2] stands for this setting: Homo sapiens, MCF7, read-out: MCF-7 IC50 ± SD, MCF-7, five dose concentrations, MTT, n = 3.
Where [3] appears, read: Homo sapiens, MCF7, read-out: Viability (%) 1.
The mark [4] stands for this setting: Homo sapiens, MCF7, read-out: Viability (%) 2.
[5] abbreviates: Homo sapiens, MCF7, read-out: Viability (%) 3.
The mark [6] stands for this setting: enzyme inhibition, dose-response, non-linear regression, read-out: VEGFR-2 inhibition IC50.

SMILES strings stand for the structures. Read-outs that look alike come from different tables or passages of the source.

T1 sequence (P35968 20-1356): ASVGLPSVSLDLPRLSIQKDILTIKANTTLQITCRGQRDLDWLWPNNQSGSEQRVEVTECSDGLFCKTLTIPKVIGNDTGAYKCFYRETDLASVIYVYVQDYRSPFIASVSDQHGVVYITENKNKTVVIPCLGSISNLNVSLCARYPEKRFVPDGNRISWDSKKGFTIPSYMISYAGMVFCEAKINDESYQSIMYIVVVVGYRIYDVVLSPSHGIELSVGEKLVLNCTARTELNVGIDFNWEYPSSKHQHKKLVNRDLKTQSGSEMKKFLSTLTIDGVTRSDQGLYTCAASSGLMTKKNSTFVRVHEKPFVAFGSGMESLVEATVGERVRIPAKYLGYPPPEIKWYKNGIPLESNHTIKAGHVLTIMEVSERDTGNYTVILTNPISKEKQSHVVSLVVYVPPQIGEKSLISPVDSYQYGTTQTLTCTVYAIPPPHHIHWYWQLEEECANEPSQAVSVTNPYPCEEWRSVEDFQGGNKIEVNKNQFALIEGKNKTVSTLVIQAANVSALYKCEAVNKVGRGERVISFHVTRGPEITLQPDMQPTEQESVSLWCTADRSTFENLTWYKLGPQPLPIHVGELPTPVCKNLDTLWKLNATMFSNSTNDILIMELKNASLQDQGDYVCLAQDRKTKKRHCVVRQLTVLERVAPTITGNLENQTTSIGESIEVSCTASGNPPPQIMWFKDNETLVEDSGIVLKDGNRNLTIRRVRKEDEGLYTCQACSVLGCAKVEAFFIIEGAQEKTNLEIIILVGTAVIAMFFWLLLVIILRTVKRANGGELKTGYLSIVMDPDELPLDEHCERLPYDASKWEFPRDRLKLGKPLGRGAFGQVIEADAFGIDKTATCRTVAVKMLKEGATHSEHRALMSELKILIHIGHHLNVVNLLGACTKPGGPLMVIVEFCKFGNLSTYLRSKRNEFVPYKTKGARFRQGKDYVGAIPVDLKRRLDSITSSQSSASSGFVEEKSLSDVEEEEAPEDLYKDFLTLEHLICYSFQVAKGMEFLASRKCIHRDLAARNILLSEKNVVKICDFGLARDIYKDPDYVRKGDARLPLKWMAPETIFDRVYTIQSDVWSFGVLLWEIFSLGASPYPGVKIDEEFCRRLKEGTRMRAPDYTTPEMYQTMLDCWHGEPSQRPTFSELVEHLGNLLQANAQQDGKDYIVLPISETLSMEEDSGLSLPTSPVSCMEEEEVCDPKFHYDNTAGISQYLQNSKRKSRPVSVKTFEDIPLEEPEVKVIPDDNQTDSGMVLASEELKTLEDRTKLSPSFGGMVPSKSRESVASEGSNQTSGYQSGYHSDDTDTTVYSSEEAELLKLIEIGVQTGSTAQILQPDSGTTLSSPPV

For `CCS(=O)(=O)CCn1c([N+](=O)[O-])cnc1C` [Tinidazole, tinidazole], the IC50 with MCF-10A cells is 51.5 ± 1.8 µM; at VEGFR-2 (dose-response curve fit, unit inferred, read-out: VEGFR-2 enzyme inhibition IC50 (Fig. 3)) it was 81900 nM; on VEGFR-2 (enzyme inhibition, unit printed as nM in text, read-out: VEGFR-2 inhibition IC50) it was 81900 nM; in the experiment on MCF-7 cells (setting [2]), 301 µM; in the experiment on MCF-7 cells (read-out: MCF-7 IC50 ± SD, MCF-7, five dose concentrations, MTT, n = 3, listed as TNZ), 301 ± 7.6 µM. Besides, on VEGFR-2 (dose-response curve fit), the “VEGFR-2 enzyme inhibition LogIC50 (Fig. 3)” value is 1.913. Besides, the viability at 100 µg/mL with MCF-7 cells (setting [1]) amounted to 67.5%; with MCF-7 cells (setting [3]) it was 68.2%; in the experiment with MCF-7 cells (setting [4]), 66.2%; in the experiment with MCF-7 cells (setting [5]), 68%. The “Average OD” value in the experiment on MCF-7 cells is 2.16. The same molecule registered an OD1 in the experiment with MCF-7 cells of 2.20. In the experiment on MCF-7 cells, the OD2 worked out at 2.14. Moreover, the OD3 with MCF-7 cells turned out to be 2.19.

Regarding `Clc1ccc(COC(Cn2ccnc2)c2ccc(Cl)cc2Cl)c(Cl)c1` (centres unmarked) [Miconazole, miconazole], the viability at 100 µg/mL in the experiment on MCF-7 cells (setting [1]) came out at 76%. Further, the viability at 100 µg/mL in the experiment with MCF-7 cells (setting [3]) was found to be 77%. Besides, the viability at 100 µg/mL in the experiment on MCF-7 cells (setting [4]) was 76%. For the same molecule, the viability at 100 µg/mL in the experiment on MCF-7 cells (setting [5]) turned out to be 75%. In the experiment with MCF-7 cells, the “Average OD” value came out at 2.45, the OD1 is 2.48, the OD2 is 2.45 and the OD3 is 2.42.

For the molecule `O=C1CN(/N=C/c2ccc(-c3ccc([N+](=O)[O-])cc3)o2)C(O)=N1` [Dantrolene, dantrolene], the viability at 100 µg/mL with MCF-7 cells (setting [1]) was 70%. Also, the viability at 100 µg/mL in the experiment with MCF-7 cells (setting [3]) came out at 72%. The viability at 100 µg/mL in the experiment on MCF-7 cells (setting [4]) was found to be 65.7%. For the same molecule, the viability at 100 µg/mL in the experiment on MCF-7 cells (setting [5]) amounted to 72.5%. In the experiment with MCF-7 cells, the “Average OD” value came to 2.26, the OD1 was found to be 2.32, the OD2 is 2.12 and the OD3 came out at 2.34.

As to `COc1cccc2c1C(=O)c1c(O)c3c(c(O)c1C2=O)C[C@@](O)(C(=O)CO)C[C@@H]3O[C@H]1C[C@H](N)[C@H](O)[C@H](C)O1` [DOX, doxorubicin], the values for the IC50 in the experiment with MCF-10A cells and in the experiment on MCF-7 cells (setting [2]) were 38.9 ± 1.1 µM and 3.91 ± 0.6 µM, respectively. Further, the viability at 100 µg/mL in the experiment on MCF-7 cells (setting [1]) is 46.2%; with MCF-7 cells (setting [3]) it was 41.9%; in the experiment on MCF-7 cells (setting [4]) it was 42.9%; with MCF-7 cells (setting [5]) it was 53.6%. Besides, in the experiment on MCF-7 cells, the “Average OD” value is 1.49. This molecule also had an OD1 in the experiment on MCF-7 cells of 1.35. The OD2 in the experiment with MCF-7 cells stood at 1.38. In the experiment with MCF-7 cells, this molecule gave an OD3 of 1.73.

As for `OC(Cn1cncn1)(Cn1cncn1)c1ccc(F)cc1F` [Fluconazole, fluconazole], the IC50 in the experiment on MCF-10A cells was 32.3 ± 1.77 µM; at VEGFR-2 (setting [6]) it was 343000 nM; with MCF-7 cells (setting [2]), 260 µM; with MCF-7 cells (read-out: MCF-7 IC50 ± SD, MCF-7, five dose concentrations, MTT, n = 3, listed as FLU), 261 ± 6.8 µM. For the same molecule, the “VEGFR-2 enzyme inhibition LogIC50 (Fig. 3)” value on VEGFR-2 (dose-response curve fit) amounted to 2.535. In addition, the viability at 100 µg/mL with MCF-7 cells (setting [1]) is 64.3%; in the experiment on MCF-7 cells (setting [3]), 62.7%; in the experiment on MCF-7 cells (setting [4]) it was 67.3%; in the experiment with MCF-7 cells (setting [5]), 62.9%. Moreover, in the experiment on MCF-7 cells, the “Average OD” value amounted to 2.07. The OD1 in the experiment with MCF-7 cells came to 2.02. The molecule also yielded an OD2 in the experiment with MCF-7 cells of 2.17. The OD3 in the experiment on MCF-7 cells worked out at 2.03.

Turning to `CCCCc1nc(Cl)c(CO)n1Cc1ccc(-c2ccccc2-c2nn[nH]n2)cc1` [Losartan, losartan], the viability at 100 µg/mL in the experiment with MCF-7 cells (setting [1]) is 71%. The viability at 100 µg/mL with MCF-7 cells (setting [3]) amounted to 71.4%. Also, the viability at 100 µg/mL in the experiment with MCF-7 cells (setting [4]) came to 69.1%. Also, the viability at 100 µg/mL in the experiment on MCF-7 cells (setting [5]) is 72.3%. In addition, in the experiment on MCF-7 cells, the “Average OD” value is listed as 2.29, the OD1 was 2.30, the OD2 came out at 2.23 and the OD3 is 2.33.

With `N[C@@H](CC(=O)N1CCn2c(nnc2C(F)(F)F)C1)Cc1cc(F)c(F)cc1F` [Sitagliptin, sitagliptin], the IC50 in the experiment on MCF-10A cells came out at 37.6 ± 1.9 µM; at VEGFR-2 (setting [6]), 104000 nM; with MCF-7 cells (setting [2]), 183 µM; with MCF-7 cells (read-out: MCF-7 IC50 ± SD, MCF-7, five dose concentrations, MTT, n = 3, listed as SIT) it was 183 ± 3.1 µM. At VEGFR-2 (dose-response curve fit), the “VEGFR-2 enzyme inhibition LogIC50 (Fig. 3)” value was 2.016. Also, the viability at 100 µg/mL came out at 64.6% in the experiment on MCF-7 cells (setting [1]), 65.7% in the experiment on MCF-7 cells (setting [3]), 64.4% in the experiment on MCF-7 cells (setting [4]) and 63.8% with MCF-7 cells (setting [5]). Moreover, the “Average OD” value with MCF-7 cells was 2.08. Further, the OD1 with MCF-7 cells was found to be 2.12. In the experiment with MCF-7 cells, this molecule showed an OD2 of 2.08. Moreover, the OD3 in the experiment on MCF-7 cells turned out to be 2.06.
